In patent publication US6613747B2, “6-O-carbamoyl ketolide antibacterials” (Ortho-McNeil Pharmaceutical, Inc., priority 2000, dated 2003):
≈ marks a conversion by molar mass, not a printed value.

Assays:
Assay in all cases: MIC, microdilution broth method (NCCLS)
Assay type in all cases: cell-based
[1] = test system: E. coli OC2605; conditions: A: E. coli OC2605, 35° C., 16-20 hours
Method in brief: (§1)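 Two-fold serial compound dilutions in cation-adjusted Mueller-Hinton broth were inoculated at approximately 5×10^4 CFU/well from actively growing cultures, incubated at 35° C. for 16-20 hours, and growth was compared with compound-free control wells to give the MIC.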

[2] = test system: E. faecalis ATCC29212; conditions: C: E. faecalis ATCC29212, 35° C., 16-20 hours
Method in brief: as §1

[3] = test system: H. influenzae ATCC49247; conditions: E: H. influenzae ATCC49247, 35° C., 16-20 hours
Method in brief: as §1

[4] = test system: S. aureus ATCC29213; conditions: B: S. aureus ATCC29213, 35° C., 16-20 hours
Method in brief: as §1

[5] = test system: S. pneumoniae ATCC49619; conditions: D: S. pneumoniae ATCC49619, 35° C., 16-20 hours
Method in brief: as §1

MIC [1]	MIC [2]	MIC [3]	MIC [4]	MIC [5]	SMILES
>16 mg/L	1 mg/L (≈ 1.19 µM)	8 mg/L (≈ 9.52 µM)	4 mg/L (≈ 4.76 µM)	0.06 mg/L (≈ 0.0714 µM)	CC[C@H]1OC(=O)[C@H](C)C(=O)[C@H](C)[C@@H](O[C@@H]2O[C@H](C)C[C@H](N(C)C)[C@H]2O)[C@](C)(OC(=O)NCCNC(=O)c2cnc3ccccc3c2)C[C@@H](C)C(=O)[C@H](C)[C@H]2NC(=O)O[C@@]21C [Compound 113]
>16 mg/L	0.25 mg/L (≈ 0.303 µM)	4 mg/L (≈ 4.84 µM)	2 mg/L (≈ 2.42 µM)	0.06 mg/L (≈ 0.0726 µM)	CC[C@H]1OC(=O)[C@H](C)C(=O)[C@H](C)[C@@H](O[C@@H]2O[C@H](C)C[C@H](N(C)C)[C@H]2O)[C@](C)(OC(=O)NCCNCc2cnc3ccccc3c2)C[C@@H](C)C(=O)[C@H](C)[C@H]2NC(=O)O[C@@]21C [Compound 114]
>16 mg/L	0.5 mg/L (≈ 0.586 µM)	16 mg/L (≈ 18.8 µM)	2 mg/L (≈ 2.34 µM)	0.06 mg/L (≈ 0.0703 µM)	CC[C@H]1OC(=O)[C@H](C)C(=O)[C@H](C)[C@@H](O[C@@H]2O[C@H](C)C[C@H](N(C)C)[C@H]2O)[C@](C)(OC(=O)NCCNCc2ccc(-c3ncccn3)cc2)C[C@@H](C)C(=O)[C@H](C)[C@H]2NC(=O)O[C@@]21C [Compound 115]
>16 mg/L	1 mg/L (≈ 1.29 µM)	8 mg/L (≈ 10.3 µM)	2 mg/L (≈ 2.58 µM)	0.12 mg/L (≈ 0.155 µM)	CC[C@H]1OC(=O)[C@H](C)C(=O)[C@H](C)[C@@H](O[C@@H]2O[C@H](C)C[C@H](N(C)C)[C@H]2O)[C@](C)(OC(=O)NCCNCc2cccnc2)C[C@@H](C)C(=O)[C@H](C)[C@H]2NC(=O)O[C@@]21C [Compound 116]
>16 mg/L	0.5 mg/L (≈ 0.577 µM)	>16 mg/L	2 mg/L (≈ 2.31 µM)	0.06 mg/L (≈ 0.0692 µM)	CC[C@H]1OC(=O)[C@H](C)C(=O)[C@H](C)[C@@H](O[C@@H]2O[C@H](C)C[C@H](N(C)C)[C@H]2O)[C@](C)(OC(=O)NCCN(C)Cc2ccc(-c3ncccn3)cc2)C[C@@H](C)C(=O)[C@H](C)[C@H]2NC(=O)O[C@@]21C [Compound 117]
>16 mg/L	1 mg/L (≈ 1.27 µM)	16 mg/L (≈ 20.3 µM)	8 mg/L (≈ 10.1 µM)	0.12 mg/L (≈ 0.152 µM)	CC[C@H]1OC(=O)[C@H](C)C(=O)[C@H](C)[C@@H](O[C@@H]2O[C@H](C)C[C@H](N(C)C)[C@H]2O)[C@](C)(OC(=O)NCCN(C)Cc2cccnc2)C[C@@H](C)C(=O)[C@H](C)[C@H]2NC(=O)O[C@@]21C [Compound 118]
>16 mg/L	0.25 mg/L (≈ 0.298 µM)	8 mg/L (≈ 9.52 µM)	4 mg/L (≈ 4.76 µM)	0.06 mg/L (≈ 0.0714 µM)	CC[C@H]1OC(=O)[C@H](C)C(=O)[C@H](C)[C@@H](O[C@@H]2O[C@H](C)C[C@H](N(C)C)[C@H]2O)[C@](C)(OC(=O)NCCN(C)Cc2cnc3ccccc3c2)C[C@@H](C)C(=O)[C@H](C)[C@H]2NC(=O)O[C@@]21C [Compound 119]
16 mg/L (≈ 18.4 µM)	0.12 mg/L (≈ 0.138 µM)	4 mg/L (≈ 4.6 µM)	0.25 mg/L (≈ 0.288 µM)	0.03 mg/L (≈ 0.0345 µM)	CCC1OC(=O)C(C)(F)C(=O)C(C)C(OC2OC(C)CC(N(C)C)C2O)C(C)(OC(=O)NCC=Cc2ccc(-c3ncccn3)cc2)CC(C)C(=NO)C(C)C2NC(=O)OC12C (centres unmarked) [Compound 123]
16 mg/L (≈ 18.6 µM)	0.12 mg/L (≈ 0.14 µM)	4 mg/L (≈ 4.66 µM)	0.25 mg/L (≈ 0.291 µM)	0.03 mg/L (≈ 0.0349 µM)	CCC1OC(=O)C(C)(F)C(=O)C(C)C(OC2OC(C)CC(N(C)C)C2O)C(C)(OC(=O)NCC=Cc2cn(-c3ncccn3)cn2)CC(C)C(=NO)C(C)C2NC(=O)OC12C (centres unmarked) [Compound 124]
16 mg/L (≈ 18.4 µM)	0.25 mg/L (≈ 0.288 µM)	2 mg/L (≈ 2.3 µM)	0.5 mg/L (≈ 0.575 µM)	0.06 mg/L (≈ 0.069 µM)	CCC1OC(=O)C(C)(F)C(=O)C(C)C(OC2OC(C)CC(N(C)C)C2O)C(C)(OC(=O)NCC=Cc2ccc(-c3cccnn3)cc2)CC(C)C(=NO)C(C)C2NC(=O)OC12C (centres unmarked) [Compound 125]
8 mg/L (≈ 9.5 µM)	0.12 mg/L (≈ 0.143 µM)	2 mg/L (≈ 2.38 µM)	0.25 mg/L (≈ 0.297 µM)	0.03 mg/L (≈ 0.0356 µM)	CCC1OC(=O)C(C)(F)C(=O)C(C)C(OC2OC(C)CC(N(C)C)C2O)C(C)(OC(=O)NCC=Cc2cnc3ccccc3c2)CC(C)C(=NO)C(C)C2NC(=O)OC12C (centres unmarked) [Compound 127]
>16 mg/L	2 mg/L (≈ 2.37 µM)	8 mg/L (≈ 9.49 µM)	4 mg/L (≈ 4.75 µM)	0.25 mg/L (≈ 0.297 µM)	CCC1OC(=O)C(C)(F)C(=O)C(C)C(OC2OC(C)CC(N(C)C)C2O)C(C)(OC(=O)NCc2ccc(-c3ncccn3)cc2)CC(C)C(=NO)C(C)C2NC(=O)OC12C (centres unmarked) [Compound 128]
8 mg/L (≈ 10.1 µM)	0.12 mg/L (≈ 0.152 µM)	1 mg/L (≈ 1.26 µM)	0.25 mg/L (≈ 0.316 µM)	0.03 mg/L (≈ 0.0379 µM)	CCC1OC(=O)C(C)(F)C(=O)C(C)C(OC2OC(C)CC(N(C)C)C2O)C(C)(OC(=O)NCC=Cc2ccccc2)CC(C)C(=NO)C(C)C2NC(=O)OC12C (centres unmarked) [Compound 129]
8 mg/L (≈ 9.19 µM)	0.12 mg/L (≈ 0.138 µM)	0.5 mg/L (≈ 0.574 µM)	0.25 mg/L (≈ 0.287 µM)	≦0.015 μg/mL	CCC1OC(=O)C(C)(F)C(=O)C(C)C(OC2OC(C)CC(N(C)C)C2O)C(C)(OC(=O)NCC=Cc2ccnc(Br)c2)CC(C)C(=NO)C(C)C2NC(=O)OC12C (centres unmarked) [Compound 130]
16 mg/L (≈ 18.8 µM)	0.25 mg/L (≈ 0.294 µM)	2 mg/L (≈ 2.35 µM)	0.25 mg/L (≈ 0.294 µM)	0.03 mg/L (≈ 0.0353 µM)	CC[C@H]1OC(=O)[C@H](C)C(=O)[C@H](C)[C@@H](O[C@@H]2O[C@H](C)C[C@H](N(C)C)[C@H]2O)[C@](C)(OC(=O)NC/C=C/c2ccc(-c3ncccn3)cc2)C[C@@H](C)C(=NO)[C@H](C)[C@H]2NC(=O)O[C@@]21C [Compound 133]
>16 mg/L	1 mg/L (≈ 1.12 µM)	>16 mg/L	2 mg/L (≈ 2.24 µM)	0.12 mg/L (≈ 0.134 µM)	CCC1OC(=O)C(C)C(=NOC)C(C)C(OC2OC(C)CC(N(C)C)C2O)C(C)(OC(=O)NCC=Cc2ccc(-c3ncccn3)cc2)CC(C)C(=NOC)C(C)C2NC(=O)OC12C (centres unmarked) [Compound 134]
>16 mg/L	2 mg/L (≈ 2.31 µM)	>16 mg/L	4 mg/L (≈ 4.63 µM)	0.5 mg/L (≈ 0.579 µM)	CC[C@H]1OC(=O)[C@H](C)C(=O)[C@H](C)[C@@H](O[C@@H]2O[C@H](C)C[C@H](N(C)C)[C@H]2O)[C@](C)(OC(=O)NCC2CC(c3ccc(-c4ncccn4)cc3)C2)C[C@@H](C)C(=O)[C@H](C)[C@H]2NC(=O)O[C@@]21C (some centres unmarked) [Compound 135]
>16 mg/L	1 mg/L (≈ 1.27 µM)	8 mg/L (≈ 10.2 µM)	4 mg/L (≈ 5.09 µM)	0.25 mg/L (≈ 0.318 µM)	CC[C@H]1OC(=O)[C@H](C)C(=O)[C@H](C)[C@@H](O[C@@H]2O[C@H](C)C[C@H](N(C)C)[C@H]2O)[C@](C)(OC(=O)N2CCC(c3ccccc3)CC2)C[C@@H](C)C(=O)[C@H](C)[C@H]2NC(=O)O[C@@]21C [Compound 137]
>16 mg/L	2 mg/L (≈ 2.69 µM)	8 mg/L (≈ 10.8 µM)	16 mg/L (≈ 21.5 µM)	0.5 mg/L (≈ 0.672 µM)	CC[C@H]1OC(=O)[C@H](C)C(=O)[C@H](C)[C@@H](O[C@@H]2O[C@H](C)C[C@H](N(C)C)[C@H]2O)[C@](C)(OC(=O)N2Cc3ccccc3C2)C[C@@H](C)C(=O)[C@H](C)[C@H]2NC(=O)O[C@@]21C [Compound 138]
